Experimental data: PubChem BioAssay AID1259407 (Chemical Carcinogenesis Research Information System (CCRIS), 2018)
Activity calls are given as the source filed them. How the calls were made is not given here.

Test system: CCRIS mutagenicity, Ames/micronucleus/aberration tests
Assay: CCRIS mutagenicity studies
Conditions: Method: Preincubation

Measured: mutagenic call

CCOC(=O)CC(=O)OCC
inactive: Test System: Ames Salmonella typhimurium, Strain/Indicator: TA98, Metabolic Activation: None inactive; negative | Test System: Ames Salmonella typhimurium, Strain/Indicator: TA98, Metabolic Activation: Rat, Liver, S-9, Phenobarbital and 5,6-benzoflavone inactive; negative | Test System: Ames Salmonella typhimurium, Strain/Indicator: TA100, Metabolic Activation: None inactive; negative | Test System: Ames Salmonella typhimurium, Strain/Indicator: TA100, Metabolic Activation: Rat, Liver, S-9, Phenobarbital and 5,6-benzoflavone inactive; negative | Test System: Ames Salmonella typhimurium, Strain/Indicator: TA1535, Metabolic Activation: None inactive; negative | Test System: Ames Salmonella typhimurium, Strain/Indicator: TA1535, Metabolic Activation: Rat, Liver, S-9, Phenobarbital and 5,6-benzoflavone inactive; negative | Test System: Ames Salmonella typhimurium, Strain/Indicator: TA1537, Metabolic Activation: None inactive; negative | Test System: Ames Salmonella typhimurium, Strain/Indicator: TA1537, Metabolic Activation: Rat, Liver, S-9, Phenobarbital and 5,6-benzoflavone inactive; negative | Test System: E. coli, Strain/Indicator: WP2uvrA/pKM101, Metabolic Activation: None inactive; negative | Test System: E. coli, Strain/Indicator: WP2uvrA/pKM101, Metabolic Activation: Rat, Liver, S-9, Phenobarbital and 5,6-benzoflavone inactive; negative
